Measurements published in PMC5444710, “Enhancement of radiosensitivity by the novel anticancer quinolone derivative vosaroxin in preclinical glioblastoma models” (Oncotarget, 2017).
Where a SMILES comes first, the peptide text is derived from it. The star is where a group is joined. Cbz = O=C(OCc1ccccc1)*; CH2F = FC*

Columns and labels:
[1] = test system: luciferase-transfected U251 cells; assay: Orthotopic intra-brain model (DFS, OS)
U251 xenografts = assay: Subcutaneous xenograft model: tumor weight and time to progression; format: in vivo, female CD1-nu/nu mice; conditions: U251 xenografts; day 35; VSR 10 mg/kg q 5 d for 5 wk IV; TMZ 16 mg/kg 5 consecutive days; RT single 4 Gy
Description: (§1) Female CD1-nu/nu mice, at 6 weeks of age, were purchased from Charles River (Milan, Italy) under the guidelines established by our institution (University of L’Aquila, Medical School and Science and Technology School Board Regulations, complying with Italian government regulation n.116, January 27, 1992, for the use of laboratory animals). All mice received subcutaneous flank injections (2 each) of 1 × 10^6 U251, U87MG, and T98G cells representing models for MGMT-negative and MGMT-positive cells. Tumor growth was assessed biweekly by measuring tumor diameters with a Vernier caliper (length × width). Tumor weight was calculated according to the formula tumor weight (mg) = tumor volume (mm^3) = d2 × D/2, where d and D are the shortest and longest diameters, respectively. The effects of the treatments were assessed as previously described. At about 10 days after the tumor injection, 30 mice with tumor volumes of 0.5–0.8 cm^3 were randomly divided into 6 groups (5 mice per group with 2 tumors each): (1) control (vehicle); (2) vosaroxin (10 mg/kg every 5 days for 5 weeks intravenous [IV] injection into tail vein; (3) radiotherapy (RT; 4 Gy delivered in a single fraction); (4) vosaroxin in combination with RT; (5) temozolomide (16 mg/kg 5 consecutive days) and (6) temozolomide in combination with RT. Anesthetized tumor-bearing mice received focal irradiation. Irradiation was delivered using an x-ray linear accelerator at a dose rate of 200 cGy/min at room temperature. All mice were shielded with a specially designed lead apparatus to allow irradiation to the right hind limb. At the end of the study (35 days after the start of treatments), animals were sacrificed by carbon dioxide inhalation and tumors were then removed surgically. Half of the tumor was directly frozen in liquid nitrogen for protein analysis and the other half was fixed in paraformaldehyde overnight for immunohistochemical analyses.
(§2) The following parameters were used to quantify the antitumor effects of different treatments as previously described: tumor volume, measured throughout the experiment; tumor weight, measured at the end of the experiment; tumor progression, defined as an increase of greater than 50% of tumor volume with respect to baseline; and time to progression (TTP), defined as the time until tumor progression was observed from baseline. Tumor size was measured with calipers and the TTP of a single tumor was calculated. TTP data were used to generate Kaplan-Meier curves for progression. This method of analysis was described previously, and may reduce both inter-subject variability resulting from differences in engraftment efficacy as well as intra-subject variability in response.
(§3) In vivo drug combination studies were evaluated using CalcuSyn. For CI calculations of dual administration, the values of % cell kill (%CK) for a fixed tumor volume were determined by the log CK (LCK). LCK was calculated as LCK = (T − C) / (3.32 × Td), where Td represented the mean control group doubling time required to reach a fixed tumor volume, expressed in days. T and C were the mean times in days required to reach the same fixed tumor volume in the treated group and the control group, respectively. CK was calculated as %CK = [1 − (1 − 10LCK)] × 100. Tumor growth delay (TGD) was calculated as %TGD = [(T − C) / C] × 100, where T and C were the same values as those reported by Bruzzese et al..

U87MG xenografts = assay: as above; format: in vivo, female CD1-nu/nu mice; conditions: U87MG xenografts; day 35; VSR 10 mg/kg q 5 d for 5 wk IV; TMZ 16 mg/kg 5 consecutive days; RT single 4 Gy
Description: as §1, §2, §3

T98G xenografts = assay: as above; format: in vivo, female CD1-nu/nu mice; conditions: T98G xenografts; day 35; VSR 10 mg/kg q 5 d for 5 wk IV; TMZ 16 mg/kg 5 consecutive days; RT single 4 Gy
Description: as §1, §2, §3

[2] = test system: U87MG, U251, and T98G cells; assay: Autophagy: acidic vesicular organelle (AVO) staining; format: cell-based, human; conditions: RT 4 Gy, 24 hours
Description: As a marker of autophagy we evaluated the presence of AVOs after staining of cell cultures with LysoTracker® Red DND-99 kit (Life Technologies Italia, Monza, Italy) according to the manufacturer’s instructions. The intensity of the red fluorescence is proportional to the degree of acidity. The percentage of autophagic cells was quantified with the Tali® Image-Based Cytometer (Life Technologies) measuring fluorescence emission at 590 nm with fluorescence excitation at 577 nm. The results were expressed as the percentage of cell AVOs stained in controls and in treated cultures.

SMILES: Cn1nnc2c(C(N)=O)ncn2c1=O [temozolomide]
- Disease-free Survival HR (95% CI) ([1]; TMZ vs VSR): 2.0 (0.9–5.5)
- Overall Survival HR (95% CI) ([1]; TMZ vs VSR): 3.0 (1.0–8.8)
- mean time of recurrence (DFS) ± SE ([1]; orthotopic U251-luciferase, treated for 35 days starting 5 days after cell injection): 68.3 ± 5.4 days
- final tumor weight reduction compared with vehicle controls (U251 xenografts): 54%
- final tumor weight reduction compared with vehicle controls (U87MG xenografts): 53%
- final tumor weight reduction compared with vehicle controls (T98G xenografts): 25%

SMILES: Cn1cnc(N)c2ncnc1-2 [3-methyladenine]
- RT-induced AVO staining ([2]; 5 μM): reduced

SMILES: COC(=O)C[C@H](NC(=O)[C@H](C)NC(=O)[C@@H](NC(=O)OCc1ccccc1)C(C)C)C(=O)CF [z-Val-Ala-Asp(Ome)-fluoromethyl ketone] (Cbz-Val-Ala-Asp(OMe)-CH2F)
- RT-induced AVO staining ([2]; 10 μM): further increased
